PubChem BioAssay (NCI)
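Five compound concentrations were applied to cells in 96-well plates for 48 hours; endpoints were derived by simple linear interpolation of the resulting dose-response curve. GI50 = concentration required for 50% inhibition of growth. The concentration for full growth arrest is given as TGI.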

What was measured:
Test in all cases: NCI anticancer screen, dose series, 48 h
[1] = tested on: IGROV1 ovarian
[2] = tested on: NCI-H23 lung
[3] = tested on: SN12C renal
[4] = tested on: SK-MEL-5 melanoma
[5] = tested on: SK-MEL-2 melanoma
[6] = tested on: EKVX NSCLC
[7] = tested on: A549 NSCLC
[8] = tested on: OVCAR-4 ovarian
[9] = tested on: HOP-92 NSCLC
[10] = tested on: SNB-19 CNS
[11] = tested on: UACC-62 melanoma
[12] = tested on: COLO 205 colon
[13] = tested on: HT29 colon
[14] = tested on: SK-OV-3 ovarian
[15] = tested on: NCI-H460 lung
[16] = tested on: OVCAR-3 ovarian
[17] = tested on: T-47D breast
[18] = tested on: SW-620 colon
[19] = tested on: SNB-75 CNS
[20] = tested on: HCC-2998 colon
[21] = tested on: MDA-MB-435
[22] = tested on: OVCAR-5 ovarian
[23] = tested on: UO-31 renal
[24] = tested on: MCF7 breast
[25] = tested on: M14 melanoma
[26] = tested on: RPMI-8226 leukemia
[27] = tested on: A498 renal
[28] = tested on: SF-268 CNS
[29] = tested on: HCT-15 colon
[30] = tested on: DU-145 prostate
[31] = tested on: OVCAR-8 ovarian
[32] = tested on: LOX IMVI melanoma
[33] = tested on: BT-549 breast
[34] = tested on: U251 CNS
[35] = tested on: 786-0 renal
[36] = tested on: SF-295 CNS
[37] = tested on: NCI/ADR-RES ovarian
[38] = tested on: SF-539 CNS
[39] = tested on: UACC-257 melanoma
[40] = tested on: K-562 leukemia
[41] = tested on: CAKI-1 renal
[42] = tested on: MOLT-4 leukemia
[43] = tested on: SK-MEL-28 melanoma
[44] = tested on: NCI-H226 lung
[45] = tested on: RXF 393 renal
[46] = tested on: PC-3 prostate
[47] = tested on: NCI-H522 lung
[48] = tested on: MDA-MB-231 breast
[49] = tested on: HOP-62 NSCLC
[50] = tested on: CCRF-CEM leukemia
[51] = tested on: HCT-116 colon
[52] = tested on: HS 578T breast

## N#Cc1c(N)nc(N2CCOCC2)c(C#N)c1-c1ccccc1Cl
[1]
  GI50: 14.7 µM
  TGI: 41.7 µM
[2]
  GI50: 37.7 µM
  TGI: > 100 µM
[3]
  GI50: 35.8 µM
  TGI: > 100 µM
[4]
  GI50: 32.4 µM
  TGI: > 100 µM
[5]
  GI50: 41.9 µM
  TGI: > 100 µM
[6]
  GI50: 37.6 µM
  TGI: > 100 µM
[7]
  GI50: 66.5 µM
  TGI: > 100 µM
[8]
  GI50: 14.5 µM
  TGI: 85.3 µM
[9]
  GI50: 16.9 µM
  TGI: 72.4 µM
[10]
  GI50: 48.5 µM
  TGI: > 100 µM
[11]
  GI50: 18.9 µM
  TGI: > 100 µM
[12]
  GI50: 38.1 µM
  TGI: > 100 µM
[13]
  GI50: 57 µM
  TGI: > 100 µM
[14]
  GI50: 41.2 µM
  TGI: > 100 µM
[15]
  GI50: 26.8 µM
  TGI: > 100 µM
[16]
  GI50: 17.3 µM
  TGI: 87.1 µM
[17]
  GI50: 21.2 µM
  TGI: > 100 µM
[18]
  GI50: > 100 µM
  TGI: > 100 µM
[19]
  GI50: 0.414 µM
  TGI: 32.6 µM
[20]
  GI50: 49.8 µM
  TGI: > 100 µM
[21]
  GI50: 80.2 µM
  TGI: > 100 µM
[22]
  GI50: 26.4 µM
  TGI: > 100 µM
[23]
  GI50: 14.5 µM
  TGI: 43.4 µM
[24]
  GI50: 17.7 µM
  TGI: 88.7 µM
[25]
  GI50: 60.9 µM
  TGI: > 100 µM
[26]
  GI50: 21.5 µM
  TGI: > 100 µM
[27]
  GI50: 2.28 µM
  TGI: 25.2 µM
[28]
  GI50: 25.4 µM
  TGI: 85.7 µM
[29]
  GI50: 41.4 µM
  TGI: > 100 µM
[30]
  GI50: 93.4 µM
  TGI: > 100 µM
[31]
  GI50: 42 µM
  TGI: > 100 µM
[32]
  GI50: 56 µM
  TGI: > 100 µM
[33]
  GI50: 30.5 µM
  TGI: > 100 µM
[34]
  GI50: 50 µM
  TGI: > 100 µM
[35]
  GI50: 62.1 µM
  TGI: > 100 µM
[36]
  GI50: 38.5 µM
  TGI: > 100 µM
[37]
  GI50: 40.2 µM
  TGI: > 100 µM
[38]
  GI50: 43.5 µM
  TGI: > 100 µM
[39]
  GI50: 47.9 µM
  TGI: > 100 µM
[40]
  GI50: 60.9 µM
  TGI: > 100 µM
[41]
  GI50: 32.4 µM
  TGI: > 100 µM
[42]
  GI50: 34.2 µM
  TGI: > 100 µM
[43]
  GI50: 33.6 µM
  TGI: > 100 µM
[44]
  GI50: 55.5 µM
  TGI: > 100 µM
[45]
  GI50: 17.5 µM
  TGI: 72.3 µM
[46]
  GI50: 22.6 µM
  TGI: > 100 µM
[47]
  GI50: 0.0236 µM
  TGI: 2.81 µM
[48]
  GI50: 31.2 µM
  TGI: > 100 µM
[49]
  GI50: > 100 µM
  TGI: > 100 µM
[50]
  GI50: 45 µM
  TGI: > 100 µM
[51]
  GI50: 74.7 µM
  TGI: > 100 µM
[52]
  GI50: 23.6 µM
  TGI: > 100 µM
